Our source for the IC50 values is US9533987B2, “Heterocyclic derivates” (KALVISTA PHARMACEUTICALS LIMITED, priority 2013, dated 2017).

For experiment [1], the target named is Human KLK1 (Homo sapiens (Human), UniProt P06870). The experiment can be described thus: Determination of the IC50 for KLK1 (fluorogenic substrate H-DVal-Leu-Arg-AFC). The experiment is classed as biochemical. As to conditions: 37° C. The method, then:
Determination of the IC50 for KLK1
Human KLK1 (Callbiochem) was incubated at 37° C. with the fluorogenic substrate H-DVal-Leu-Arg-AFC and various concentrations of the test compound. Residual enzyme activity (initial rate of reaction) was determined by measuring the change in […] at 410 nm and the IC50 value for the test compound was determined.

Experiment [2] addresses Human plasma kallikrein (Homo sapiens (Human), UniProt P03952). The experiment in a line: Determination of the IC50 for plasma kallikrein (fluorogenic substrate H-DPro-Phe-Arg-AFC). Type of experiment: biochemical. As to conditions: 37° C., read-out: IC50 (human PKaI). The method, then: Determination of the IC50 for Plasma Kallikrein
Human plasma kallikrein (Protogen) was incubated at 37° C. with the fluorogenic substrate H-DPro-Phe-Arg-AFC and various concentrations of the test compound. Residual enzyme activity (initial rate of reaction) was determined by measuring the change in […] at 410 nm and the IC50 value for the test compound was determined.

For orientation: IC50 means the concentration at which inhibition is half-maximal.

Chain of Human KLK1 (P06870 25-262): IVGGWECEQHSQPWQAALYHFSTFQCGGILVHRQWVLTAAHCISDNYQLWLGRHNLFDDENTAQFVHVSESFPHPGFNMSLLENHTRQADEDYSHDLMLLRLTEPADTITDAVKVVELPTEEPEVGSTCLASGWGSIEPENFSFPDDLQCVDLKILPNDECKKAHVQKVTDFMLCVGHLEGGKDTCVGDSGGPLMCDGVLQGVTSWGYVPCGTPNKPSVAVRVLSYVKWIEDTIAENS
Chain of Human plasma kallikrein (P03952 391-638): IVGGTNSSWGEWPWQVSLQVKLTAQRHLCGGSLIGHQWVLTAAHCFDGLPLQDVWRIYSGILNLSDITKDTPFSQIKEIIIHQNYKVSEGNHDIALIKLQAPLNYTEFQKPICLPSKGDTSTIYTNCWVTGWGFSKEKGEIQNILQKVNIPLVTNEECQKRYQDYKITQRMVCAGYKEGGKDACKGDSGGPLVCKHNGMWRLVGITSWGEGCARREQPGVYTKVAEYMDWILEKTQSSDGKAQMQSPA
Chain of Human plasma kallikrein (P03952 20-390 partner): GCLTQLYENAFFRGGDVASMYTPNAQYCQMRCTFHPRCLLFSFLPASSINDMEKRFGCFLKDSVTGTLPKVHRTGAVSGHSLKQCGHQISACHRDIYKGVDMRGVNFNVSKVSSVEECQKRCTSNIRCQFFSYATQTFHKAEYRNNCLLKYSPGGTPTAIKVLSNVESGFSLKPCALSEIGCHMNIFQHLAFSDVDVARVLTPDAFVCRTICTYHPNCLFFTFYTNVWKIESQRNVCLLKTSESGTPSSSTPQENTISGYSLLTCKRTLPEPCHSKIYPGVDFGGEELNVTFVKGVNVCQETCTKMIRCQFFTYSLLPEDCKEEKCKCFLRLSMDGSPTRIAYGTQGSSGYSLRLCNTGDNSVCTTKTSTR

On to `Cc1cc(C(=O)NCc2cnc3[nH]ccc3c2)c(C)n1Cc1csc(-c2ccccc2)n1` [Example 3, 2,5-Dimethyl-1-(2-phenyl-thiazol-4-ylmethyl)-1H-pyrrole-3-carboxylic acid (1H-pyrrolo[2,3-b]pyridin-5-ylmethyl)-amide], for which the IC50 in experiment [1] was > 10 µM; in experiment [2], 2690 nM.

In the case of `O=C(NCc1cnc2[nH]ccc2c1)c1cn(Cc2ccc(Cn3ccccc3=O)cc2)nc1C(F)(F)F` [Example 7, 1-[4-(2-Oxo-2H-pyridin-1-ylmethyl)-benzyl]-3-trifluoromethyl-1H-pyrazole-4-carboxylic acid (1H-pyrrolo[2,3-b]pyridin-5-ylmethyl)-amide], the results for the IC50 in experiment [1] and in experiment [2] were > 10 µM and 5.38 nM, respectively.

As for `Cc1nc2[nH]ccc2c(C)c1CNC(=O)c1cn(Cc2ccc(Cn3ccccc3=O)cc2)nc1C(F)(F)F` [Example 8, 1-[4-(2-Oxo-2H-pyridin-1-ylmethyl)-benzyl]-3-trifluoromethyl-1H-pyrazole-4-carboxylic acid (4,6-dimethyl-1H-pyrrolo[2,3-b]pyridin-5-ylmethyl)-amide], the IC50 in experiment [1] was > 10 µM; in experiment [2], 3.72 nM.

As to `Cc1cnn(Cc2ccc(Cn3c(C)cc(C(=O)NCc4ccc5c(N)nccc5c4)c3C)cc2)c1` [Example 9, 2,5-Dimethyl-1-[4-(4-methyl-pyrazol-1-ylmethyl)-benzyl]-1H-pyrrole-3-carboxylic acid (1-amino-isoquinolin-6-ylmethyl)-amide], the results for the IC50 in experiment [1] and in experiment [2] were > 10 µM and 14.3 nM, respectively.

Regarding `Cc1cnn(Cc2ccc(Cn3cnc(C(=O)NCc4ccc5c(N)nccc5c4)c3)cc2)c1` [Example 10, 1-[4-(4-Methyl-pyrazol-1-ylmethyl)-benzyl]-1H-imidazole-4-carboxylic acid (1-amino-isoquinolin-6-ylmethyl)-amide], the values for the IC50 in experiment [1] and in experiment [2] were > 10 µM and 2.4 nM, respectively.

For the compound `Cc1cnn(Cc2ccc(Cn3cc(C(=O)NCc4ccc5c(N)nccc5c4)c(CO)n3)cc2)c1` [Example 15, 3-Hydroxymethyl-1-[4-(4-methyl-pyrazol-1-ylmethyl)-benzyl]-1H-pyrazole-4-carboxylic acid (1-amino-isoquinolin-6-ylmethyl)-amide], the values for the 50% inhibitory concentration (IC50) in experiment [1] and in experiment [2] were 6.64 µM and 1.17 nM, respectively.

On to `Cc1cnn(Cc2ccc(Cn3cc(C(=O)NCc4ccc5c(N)nccc5c4)c(C#N)n3)cc2)c1` [Example 16, 3-Cyano-1-[4-(4-methyl-pyrazol-1-ylmethyl)-benzyl]-1H-pyrazole-4-carboxylic acid (1-amino-isoquinolin-6-ylmethyl)-amide], for which the IC50 in experiment [1] worked out at 5.73 µM; in experiment [2], 0.74 nM.

In the case of `Cc1cnn(Cc2ccc(Cn3cc(C(=O)NCc4ccc5c(N)nccc5c4)c(C(=O)O)n3)cc2)c1` [Example 17, 4-[(1-Amino-isoquinolin-6-ylmethyl)-carbamoyl]-1-[4-(4-methyl-pyrazol-1-ylmethyl)-benzyl]-1H-pyrazole-3-carboxylic acid], the IC50 in experiment [1] was > 10 µM; in experiment [2], 1190 nM.

Take `Cc1cnn(Cc2ccc(Cn3cc(C(=O)NCc4ccc5c(N)nccc5c4)c(=O)[nH]3)cc2)c1` [Example 19, 1-[4-(4-Methyl-pyrazol-1-ylmethyl)-benzyl]-3-oxo-2,3-dihydro-1H-pyrazole-4-carboxylic acid (1-amino-isoquinolin-6-ylmethyl)-amide]: the figures for the half-maximal inhibitory concentration (IC50) in experiment [1] and in experiment [2] were > 10 µM and 994 nM, respectively.

As for `Cc1cnn(Cc2ccc(Cn3cc(C(=O)NCc4ccc5c(N)nccc5c4)c(-c4c(C)noc4C)n3)cc2)c1` [Example 20, 3-(3,5-Dimethyl-isoxazol-4-yl)-1-[4-(4-methyl-pyrazol-1-ylmethyl)-benzyl]-1H-pyrazole-4-carboxylic acid (1-amino-isoquinolin-6-ylmethyl)-amide], the values for the IC50 in experiment [1] and in experiment [2] were > 10 µM and 0.89 nM, respectively.

For the compound `Cc1cnn(Cc2ccc(Cn3cc(C(=O)NCc4ccc5c(N)nccc5c4)c(N4CCOCC4)n3)cc2)c1` [Example 21, 1-[4-(4-Methyl-pyrazol-1-ylmethyl)-benzyl]-3-morpholin-4-yl-1H-pyrazole-4-carboxylic acid (1-amino-isoquinolin-6-ylmethyl)-amide], the half-inhibitory concentration (IC50) in experiment [1] was > 10 µM; in experiment [2] it was 6.46 nM.

With `COc1cc(Cn2cc(C(=O)NCc3ccc4c(N)nccc4c3)c(C3CC3)n2)cnc1N1CCCC1` [Example 25, 3-Cyclopropyl-1-(5-methoxy-6-pyrrolidin-1-yl-pyridin-3-ylmethyl)-1H-pyrazole-4-carboxylic acid (1-amino-isoquinolin-6-ylmethyl)-amide], the figures for the half-inhibitory concentration (IC50) in experiment [1] and in experiment [2] were 2.21 µM and 7.31 nM, respectively.

With `CCOc1ccc(Cn2cc(C(=O)NCc3ccc4c(N)nccc4c3)c(-c3ccccc3)n2)cn1` [Example 26, 1-(6-Ethoxy-pyridin-3-ylmethyl)-3-phenyl-1H-pyrazole-4-carboxylic acid (1-amino-isoquinolin-6-ylmethyl)-amide], the half-maximal inhibitory concentration (IC50) came to 4.73 µM in experiment [1] and 205 nM in experiment [2].

As to `CCOc1ccc(Cn2cc(C(=O)NCc3ccc4c(N)nccc4c3)c(NC(=O)COC)n2)cn1` [Example 27, 1-(6-Ethoxy-pyridin-3-ylmethyl)-3-(2-methoxy-acetylamino)-1H-pyrazole-4-carboxylic acid (1-amino-isoquinolin-6-ylmethyl)-amide], the IC50 in experiment [1] amounted to 3.2 µM; in experiment [2], 128 nM.

With `CCn1c(C(=O)NCc2ccc3c(N)nccc3c2)cc(C)c1Cc1csc(-c2ccccc2)n1` [Example 29, 1-Ethyl-4-methyl-5-(2-phenyl-thiazol-4-ylmethyl)-1H-pyrrole-2-carboxylic acid (1-amino-isoquinolin-6-ylmethyl)-amide], the half-inhibitory concentration (IC50) in experiment [1] is > 10 µM; in experiment [2] it was 620 nM.

As for `Cc1cnn(Cc2ccc(Cn3cc(C(=O)NCc4ccc5c(N)nccc5c4)cn3)cc2)c1` [Example 31, 1-[4-(4-Methyl-pyrazol-1-ylmethyl)-benzyl]-1H-pyrazole-4-carboxylic acid (1-amino-isoquinolin-6-ylmethyl)-amide], the IC50 in experiment [1] was > 10 µM; in experiment [2], 2 nM.

As to `Cc1cnn(Cc2ccc(Cn3cc(C(=O)NCc4ccc5c(N)nccc5c4)c(-c4ccsc4)n3)cc2)c1` [Example 42, 1-[4-(4-Methyl-pyrazol-1-ylmethyl)-benzyl]-3-thiophen-3-yl-1H-pyrazole-4-carboxylic acid (1-amino-isoquinolin-6-ylmethyl)-amide], the IC50 in experiment [1] turned out to be 9.05 µM; in experiment [2] it was 4.85 nM.

In the case of `Nc1nccc2cc(CNC(=O)c3cnn(Cc4ccc(Cn5cccn5)cc4)c3N)ccc12` [Example 53, 5-Amino-1-(4-pyrazol-1-ylmethyl-benzyl)-1H-pyrazole-4-carboxylic acid (1-amino-isoquinolin-6-ylmethyl)-amide], the IC50 is > 10 µM in experiment [1] and 16.8 nM in experiment [2].

Consider `C[C@@H]1CCN(c2ccc(Cn3cc(C(=O)NCc4ccc5c(N)nccc5c4)c(C(F)(F)F)n3)cn2)C1` [Example 58, 1-[6-((R)-3-Methyl-pyrrolidin-1-yl)-pyridin-3-ylmethyl]-3-trifluoromethyl-1H-pyrazole-4-carboxylic acid (1-amino-isoquinolin-6-ylmethyl)-amide], for which the concentration for half-maximal inhibition (IC50) in experiment [1] turned out to be 3.11 µM; in experiment [2] it was 13.3 nM.

Regarding `Nc1nccc2cc(CNC(=O)c3cn(Cc4cnc(N5CCCC5)nc4)nc3C(F)(F)F)ccc12` [Example 64, 1-(2-Pyrrolidin-1-yl-pyrimidin-5-ylmethyl)-3-trifluoromethyl-1H-pyrazole-4-carboxylic acid (1-amino-isoquinolin-6-ylmethyl)-amide], the IC50 stood at 2.79 µM in experiment [1] and 10.4 nM in experiment [2].

Take `Nc1nccc2cc(CNC(=O)c3cn(Cc4cnc(N5CCCC5)cn4)nc3C(F)(F)F)ccc12` [Example 65, 1-(5-Pyrrolidin-1-yl-pyrazin-2-ylmethyl)-3-trifluoromethyl-1H-pyrazole-4-carboxylic acid (1-amino-isoquinolin-6-ylmethyl)-amide]: the IC50 in experiment [1] was 0.96 µM; in experiment [2], 14.9 nM.

`CC(C)Oc1cc(Cn2cc(C(=O)NCc3ccc4c(N)nccc4c3)c(C(F)(F)F)n2)ccn1` [Example 66, 1-(2-Isopropoxy-pyridin-4-ylmethyl)-3-trifluoromethyl-1H-pyrazole-4-carboxylic acid (1-amino-isoquinolin-6-ylmethyl)-amide]: the IC50 in experiment [1] is > 10 µM; in experiment [2], 281 nM.

For the compound `Nc1nccc2cc(CNC(=O)c3cn(Cc4ccc(N5CCC(CO)C5)nc4)nc3C(F)(F)F)ccc12` (centres unmarked) [Example 69, 1-[6-(3-Hydroxymethyl-pyrrolidin-1-yl)-pyridin-3-ylmethyl]-3-trifluoromethyl-1H-pyrazole-4-carboxylic acid (1-amino-isoquinolin-6-ylmethyl)-amide], the 50% inhibitory concentration (IC50) in experiment [1] stood at 4.74 µM; in experiment [2], 32.3 nM.

Consider `Nc1nccc2cc(CNC(=O)c3cn(Cc4ccc(N5CC[C@@H](CO)C5)nc4)nc3C(F)(F)F)ccc12` [Example 70, 1-[6-((R)-3-Hydroxymethyl-pyrrolidin-1-yl)-pyridin-3-ylmethyl]-3-trifluoromethyl-1H-pyrazole-4-carboxylic acid (1-amino-isoquinolin-6-ylmethyl)-amide], for which the concentration for half-maximal inhibition (IC50) in experiment [1] was 4.91 µM; in experiment [2], 66.9 nM.

As for `CCCOc1ccc(Cn2cc(C(=O)NCc3ccc4c(N)nccc4c3)c(C(F)(F)F)n2)cn1` [Example 71, 1-(6-Propoxy-pyridin-3-ylmethyl)-3-trifluoromethyl-1H-pyrazole-4-carboxylic acid (1-amino-isoquinolin-6-ylmethyl)-amide], the IC50 was > 10 µM in experiment [1] and 63.6 nM in experiment [2].
